Experimental data as given in patent US8642656B2, “Calixarene-based peptide conformation mimetics, methods of use, and methods of making” (priority 2004, dated 2014).
Like-named read-outs stand apart in the source and are kept apart here.

Key:
LPS from S. marcascens = experiment: LPS neutralization assay (Limulus amoebocyte lysate, QCL-1000); format: biochemical, Serratia marcascens; settings: read-out: IC50 values (μM) for LPS binding, Serratia
Procedure, shortened: (§1)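 Chromogenic LAL assay; LPS at 0.04 units (0.01 ng for P. aeruginosa and E. coli 0111:B4, 0.03 ng for S. typhimurium and S. marcascens). pNA release read at 405-410 nm. IC50 by sigmoidal dose-response fit.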

[1] = Hematocrit levels, first (MA148) study; format: in vivo, mice; settings: last day of treatment, vehicle 47±5.7
Procedure: As an indirect measurement of general toxicity, body weights of mice were monitored twice weekly, using a digital balance (Ohaus Florham, N.J.). To determine hematocrit levels, blood samples were extracted by tail vein bleedings one day after terminating treatment, and blood was collected in heparinized micro-hematocrit capillary lubes (Fisher Pittsburgh, Pa.). Samples were spun down for 10 minutes in a micro-hematocrit centrifuge (Clay-Adams; NY), and the amount of hematocrit was determined using an international microcapillary reader (IEC; Needham, Mass.).

MA148 tumor vessels = experiment: Histological analysis of microvessel density, anti-CD31 staining, MA148 tumors; format: in vivo, mice; settings: mean ± standard error, 20 images
Procedure: Immunohistochemistry was used to assess microvessel density and the extent of total cell apoptosis. Approximately, tumors of the same size and with no apparent necrosis were selected for processing. On the last day of treatment mice were sacrificed and tumors were excised. Tumor tissue was embedded in tissue freezing medium (Miles Inc, Elkart, Ind.) and shock frozen in liquid nitrogen. Sections of tissue (10 μm thickness) were prepared for immunohistochemical analysis. For this, tissue sections were brought to room temperature, air dried overnight, and then fixed in acetone for 10 minutes. Slides were allowed to air dry for at least 30 minutes and were washed three limes for 5 minutes each in phosphate-buffered saline (PBS, pH 7.4). Samples were then blocked with PBS containing 0.1% bovine serum albumin and 3% human serum albumin for at least 30 minutes at room temperature in a humidified box. Samples were subsequently incubated with phycoerytrin (PE)-conjugated monoclonal antibody to CD31 (PECAM-1) in a 1:50 dilution (Pharmigen, San Diego, Calif.) to stain for microvessel density.
Digital images were stored and processed using Adobe Photoshop (Adobe Inc., Mountain View Calif.). Quantification of microvessel density, were determined as described previously (Dings et al., Cancer Res 63, 382-385 (2003)). Statistical analysis was performed using the Student's t-test.

B16F10 tumor cells = experiment: Proliferation of B16F10 tumor cells; format: cell-based, murine
LPS from P. aeruginosa = experiment: LPS neutralization assay (Limulus amoebocyte lysate, QCL-1000); format: biochemical, Pseudomonas aeruginosa; settings: read-out: IC50 values (μM) for LPS binding, P.a.
Procedure, shortened: as §1

[2] = system: leukocytes in tumors of tumor bearing mice; experiment: Leukocyte infiltration into tumors, anti-CD45 and anti-CD8 staining; format: in vivo; settings: compared with βpep-25; FIG. 4
Procedure: Female athymic nude mice (nu/nu, 5-6 weeks old) were used. These mice were purchased from the National Cancer Institute and allowed to acclimatize to local conditions for at least one week. Animals were given water and standard chow ad libitum, and were kept on a 12-hour light/dark cycle. All experiments were approved by the University of Minnesota Research Animal Resources ethical committee. Mice were randomized and split into three groups: 1) human serum albumin (10 mg/kg/day), 2) βpep-25 (10 mg/kg/day) and 3) peptide mimetic agent (5 mg or 10 mg/kg/day). Test compounds were diluted in DMSO and administered using osmotic mini-pumps (Durect, Cupertino, Calif.). Exponentially growing MA148 human ovarian carcinoma cells, kindly provided by Prof. Ramakrishnan (R. P. Dings et al., Cancer Res., 63, 382-385 (2003)) or B16 mouse melanoma cells were cultured in RPM1 1640 medium (Life Technologies, Grand Island, N.Y.). This medium was supplemented with 10% fetal bovine serum and 1% penicillin/streptomycin (Cellgro, Mediatech, Washington, D.C.) at 37° C and 5% CO2. […]
Similar size tumors without apparent widespread necrosis were embedded in tissue freezing medium (Miles Inc.; Elkart, Ind.) and snap frozen in liquid nitrogen. […] The vessel density and architecture was quantified as described earlier [Griffioen et al., Biochemical Journal 354, 233-242 (2001)]. […]

For “5,11,17,23-Tetra-tert-butyl-25,27-bis(2-guanidinoethoxy)-26,28-dihydroxy calix[4]arene trifluoroacetic acid salt [Compound 27]”, the IC50 (LPS from S. marcascens; Table 3, errors estimated ±30%) was over 5 µM, the “Hematocrit levels ±SD” value ([1]; 2.7 mg/kg) was 46.5±0.7 percentage of red blood cells and the “Hematocrit levels ±SD” value ([1]; 10 mg/kg) was 47±4.2 percentage of red blood cells. The “Branch Points” value (MA148 tumor vessels; MA148, 2.7 mg/kg) was 1.1 ± 0.3 pixel counts per image, the “End Points” value (MA148 tumor vessels; MA148, 2.7 mg/kg) was 32.7 ± 6.0 pixel counts per image and the “Vessel Density” value (MA148 tumor vessels; MA148, 2.7 mg/kg) was 6046 ± 533 pixel counts per image. For the same molecule, the “Vessel Length” value (MA148 tumor vessels; MA148, 2.7 mg/kg) was 4.2 ± 0.6 pixel counts per image, the “Branch Points” value (MA148 tumor vessels; MA148, 10 mg/kg) was 2.3 ± 0.6 pixel counts per image and the “End Points” value (MA148 tumor vessels; MA148, 10 mg/kg) was 14.7 ± 2.2 pixel counts per image. The “Vessel Density” value (MA148 tumor vessels; MA148, 10 mg/kg) was 7402 ± 763 pixel counts per image, the “Vessel Length” value (MA148 tumor vessels; MA148, 10 mg/kg) was 5.0 ± 0.7 pixel counts per image and the IC50 (B16F10 tumor cells; read-out: IC50 against B16F10 tumor cells) was 10 µM. The IC50 (LPS from P. aeruginosa; Table 3, errors estimated ±30%) was over 5 µM and the “leukocyte infiltration into tumors (in words)” value [2] was “clearly more effective at increasing leukocyte infiltration into tumors than βpep-25”.

In the case of `CN(C)CCNC(=O)COc1c2cccc1Cc1cccc(c1OCC(=O)NCCN(C)C)Cc1cccc(c1OCC(=O)NCCN(C)C)Cc1cccc(c1OCC(=O)NCCN(C)C)C2` [Compound 40], the IC50 (LPS from S. marcascens; Table 2) is reported as over 5 µM, the IC50 (LPS from S. marcascens; Table 3, errors estimated ±30%) is reported as over 5 µM and the “Hematocrit levels ±SD” value ([1]; 2.4 mg/kg) is reported as 50±1.4 percentage of red blood cells. The “Hematocrit levels ±SD” value ([1]; 10 mg/kg) was 49.5±2.1 percentage of red blood cells, the “Branch Points” value (MA148 tumor vessels; MA148, 2.4 mg/kg) was 1.6 ± 0.3 pixel counts per image and the “End Points” value (MA148 tumor vessels; MA148, 2.4 mg/kg) was 15.7 ± 2.1 pixel counts per image. For the same molecule, the “Vessel Density” value (MA148 tumor vessels; MA148, 2.4 mg/kg) was 7148 ± 844 pixel counts per image, the “Vessel Length” value (MA148 tumor vessels; MA148, 2.4 mg/kg) was 5.3 ± 0.7 pixel counts per image and the “Branch Points” value (MA148 tumor vessels; MA148, 10 mg/kg) was 1.0 ± 0.2 pixel counts per image. The “End Points” value (MA148 tumor vessels; MA148, 10 mg/kg) was 23.0 ± 2.9 pixel counts per image, the “Vessel Density” value (MA148 tumor vessels; MA148, 10 mg/kg) was 5112 ± 439 pixel counts per image and the “Vessel Length” value (MA148 tumor vessels; MA148, 10 mg/kg) was 3.3 ± 0.5 pixel counts per image. For the same molecule, the “IC50 against B16F10 tumor cells” value (B16F10 tumor cells) was “neither demonstrated activity”, the IC50 (LPS from P. aeruginosa; Table 2) was over 5 µM and the IC50 (LPS from P. aeruginosa; Table 3, errors estimated ±30%) was over 5 µM. The “leukocyte infiltration into tumors (in words)” value [2] was “clearly more effective at increasing leukocyte infiltration into tumors than βpep-25”.
